Test results taken from PubChem BioAssay (NCI).
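Values below derive from 48-hour exposures of cells grown in 96-well plates, with endpoints linearly interpolated between the two concentrations bracketing the appropriate inhibition level. At the TGI there is no net growth.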

Legend:
Assay in all cases: NCI tumour cell line growth inhibition, 48 h
UACC-257 melanoma = tested on: UACC-257 melanoma
CAKI-1 renal = tested on: CAKI-1 renal
KM12 colon = tested on: KM12 colon
HS 578T breast = tested on: HS 578T breast
DU-145 prostate = tested on: DU-145 prostate
COLO 205 colon = tested on: COLO 205 colon
NCI-H522 lung = tested on: NCI-H522 lung
PC-3 prostate = tested on: PC-3 prostate
ACHN renal = tested on: ACHN renal
SN12C renal = tested on: SN12C renal
NCI-H226 lung = tested on: NCI-H226 lung
HL-60(TB) leukemia = tested on: HL-60(TB) leukemia

With `CCN(CC)CCNc1ccc(N=Nc2ccc(S(N)(=O)=O)cc2)c2ccccc12` the TGI (UACC-257 melanoma) was 31.4 µM, the TGI (CAKI-1 renal) was 31.2 µM and the TGI (KM12 colon) was 39 µM. For the same molecule, the TGI (HS 578T breast) was 55.9 µM, the TGI (DU-145 prostate) was 28.2 µM and the TGI (COLO 205 colon) was > 100 µM. It also gave a TGI (NCI-H522 lung) of 32 µM, a TGI (PC-3 prostate) of 29.7 µM and a TGI (ACHN renal) of 38.8 µM. It also gave a TGI (SN12C renal) of 81 µM, a TGI (NCI-H226 lung) of 72.7 µM and a TGI (HL-60(TB) leukemia) of 36.9 µM.

`c1ccc2c(c1)SC1Sc3ccccc3[S+]21` (stereo not given) gave a TGI (UACC-257 melanoma) of 33.8 µM, a TGI (CAKI-1 renal) of 44.8 µM and a TGI (KM12 colon) of 31.1 µM. For the same molecule, the TGI (HS 578T breast) was > 100 µM, the TGI (DU-145 prostate) was > 76.3 µM and the TGI (COLO 205 colon) was 30.1 µM. For the same molecule, the TGI (NCI-H522 lung) was 26.1 µM, the TGI (PC-3 prostate) was > 100 µM and the TGI (ACHN renal) was 20.4 µM. It also gave a TGI (SN12C renal) of 33.6 µM, a TGI (NCI-H226 lung) of 96.9 µM and a TGI (HL-60(TB) leukemia) of 60.9 µM.

With `COc1ccc(CN=CN/C(C#N)=C(\N)C#N)cc1OC` the TGI (UACC-257 melanoma) was > 100 µM, the TGI (CAKI-1 renal) was > 100 µM and the TGI (KM12 colon) was > 100 µM. The TGI (HS 578T breast) was > 100 µM, the TGI (DU-145 prostate) was > 100 µM and the TGI (COLO 205 colon) was > 100 µM. For the same molecule, the TGI (NCI-H522 lung) was > 100 µM, the TGI (PC-3 prostate) was > 100 µM and the TGI (ACHN renal) was > 100 µM. For the same molecule, the TGI (SN12C renal) was > 100 µM, the TGI (NCI-H226 lung) was > 100 µM and the TGI (HL-60(TB) leukemia) was > 100 µM.

With `CC(=O)Nc1ccc(Nc2nc(=O)[nH]c(=O)[nH]2)cc1` the TGI (UACC-257 melanoma) was > 100 µM, the TGI (CAKI-1 renal) was > 100 µM and the TGI (KM12 colon) was > 100 µM. For the same molecule, the TGI (HS 578T breast) was > 100 µM, the TGI (DU-145 prostate) was > 100 µM and the TGI (COLO 205 colon) was > 100 µM. For the same molecule, the TGI (NCI-H522 lung) was > 100 µM, the TGI (PC-3 prostate) was > 100 µM and the TGI (ACHN renal) was > 100 µM. For the same molecule, the TGI (SN12C renal) was > 100 µM, the TGI (NCI-H226 lung) was > 100 µM and the TGI (HL-60(TB) leukemia) was > 100 µM.

For `CN(C)Cc1cc(N=Nc2ccc(Cl)c(Cl)c2)ccc1O`, the TGI (UACC-257 melanoma) was 30.5 µM, the TGI (CAKI-1 renal) was 25.4 µM and the TGI (KM12 colon) was 16.5 µM. The TGI (HS 578T breast) was 21.9 µM, the TGI (DU-145 prostate) was 17.6 µM and the TGI (COLO 205 colon) was 8.26 µM. It also gave a TGI (NCI-H522 lung) of 16.2 µM, a TGI (PC-3 prostate) of 23.8 µM and a TGI (ACHN renal) of 16.2 µM. For the same molecule, the TGI (SN12C renal) was 27.8 µM, the TGI (NCI-H226 lung) was 40.7 µM and the TGI (HL-60(TB) leukemia) was 9.44 µM.

`CN(C)CCCOC(=O)C(O)(Cc1ccccc1)C1CC1` (stereo not given) was tested, and the TGI (UACC-257 melanoma) was > 100 µM, the TGI (CAKI-1 renal) was > 100 µM and the TGI (KM12 colon) was > 100 µM. The TGI (HS 578T breast) was > 100 µM, the TGI (DU-145 prostate) was > 100 µM and the TGI (COLO 205 colon) was > 100 µM. For the same molecule, the TGI (NCI-H522 lung) was > 100 µM, the TGI (PC-3 prostate) was > 100 µM and the TGI (ACHN renal) was > 100 µM. For the same molecule, the TGI (SN12C renal) was > 100 µM, the TGI (NCI-H226 lung) was > 100 µM and the TGI (HL-60(TB) leukemia) was > 100 µM.

Molecule `COC(=O)/C=C1/OC(c2ccccc2)=C(Cl)C1=O` has a TGI (UACC-257 melanoma) of 66 µM, a TGI (CAKI-1 renal) of 32.7 µM and a TGI (KM12 colon) of 45.6 µM. The TGI (HS 578T breast) was 66.8 µM, the TGI (DU-145 prostate) was > 76.2 µM and the TGI (COLO 205 colon) was 30.1 µM. The TGI (NCI-H522 lung) was 33 µM, the TGI (PC-3 prostate) was 31.6 µM and the TGI (ACHN renal) was 33 µM. For the same molecule, the TGI (SN12C renal) was > 60.1 µM, the TGI (NCI-H226 lung) was > 84.6 µM and the TGI (HL-60(TB) leukemia) was 16.2 µM.

In the case of `COc1cc(C2c3cc4c(cc3OC(N3CCOCC3)C2C)OCO4)cc(OC)c1O` (stereo not given), the TGI (UACC-257 melanoma) is reported as > 100 µM, the TGI (CAKI-1 renal) is reported as 26.1 µM and the TGI (KM12 colon) is reported as > 100 µM. The TGI (HS 578T breast) was 25.6 µM, the TGI (DU-145 prostate) was > 100 µM and the TGI (COLO 205 colon) was 41.9 µM. The TGI (NCI-H522 lung) was > 20.2 µM, the TGI (PC-3 prostate) was > 86.2 µM and the TGI (ACHN renal) was > 74.9 µM. The TGI (SN12C renal) was 54.3 µM, the TGI (NCI-H226 lung) was > 66.3 µM and the TGI (HL-60(TB) leukemia) was > 26 µM.

For `COc1cccc(/C=C/C2=NN(c3cccc(S(=O)(=O)O)c3)C3(C2)SCC(=O)N3c2nc3ccccc3s2)c1` (stereo not given), the TGI (UACC-257 melanoma) was > 100 µM, the TGI (CAKI-1 renal) was > 100 µM and the TGI (KM12 colon) was > 100 µM. For the same molecule, the TGI (HS 578T breast) was > 100 µM, the TGI (DU-145 prostate) was 93.1 µM and the TGI (COLO 205 colon) was > 100 µM. The TGI (NCI-H522 lung) was 28.4 µM, the TGI (PC-3 prostate) was > 100 µM and the TGI (ACHN renal) was > 100 µM. The TGI (SN12C renal) was > 100 µM, the TGI (NCI-H226 lung) was > 100 µM and the TGI (HL-60(TB) leukemia) was > 100 µM.

With `COc1cc2[nH]c(-c3ccccc3)cc(=O)c2cc1OC` the TGI (UACC-257 melanoma) was > 100 µM, the TGI (CAKI-1 renal) was > 100 µM and the TGI (KM12 colon) was > 74.9 µM. For the same molecule, the TGI (HS 578T breast) was > 100 µM, the TGI (DU-145 prostate) was > 100 µM and the TGI (COLO 205 colon) was > 33.3 µM. For the same molecule, the TGI (NCI-H522 lung) was > 56.3 µM, the TGI (PC-3 prostate) was > 100 µM and the TGI (ACHN renal) was > 100 µM. For the same molecule, the TGI (SN12C renal) was > 100 µM, the TGI (NCI-H226 lung) was 53.6 µM and the TGI (HL-60(TB) leukemia) was 41 µM.
